The values below come from patent US20260028352A1, “MACROCYCLIC IMIDAZO [1,2-B] PYRIDAZINE DERIVATIVE, PREPARATION METHOD THEREFOR, AND USE THEREOF” (SUZHOU LANGRUI BIOPHARMACEUTICAL CO., LTD., priority 2022, published 2026).

Read-outs that look alike come from different tables or passages of the source.

The target in one data set is TRKA^F589L kinase (Homo sapiens (Human), UniProt P04629, F589L). The experiment in a line: Inhibitory activity against TRKA(F589L) kinase (Caliper mobility shift). Type of data set: biochemical. As to conditions: in vitro kinase assay. The gist of the method:
(§1)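 Kinase preincubated 10 min at room temperature with compound (10-point 3-fold series from 1000 nM), then reaction started with ATP and Kinase Substrate 22. Substrate conversion read by Caliper mobility shift; IC50 from variable-slope log(inhibitor)–response fit of % inhibition versus no-enzyme and no-compound controls.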

For data set [1], the system named is Ba/F3-TPM3-NTRK1-WT cells. Briefly: Growth inhibition of Ba/F3-TPM3-NTRK1-WT cells (Cell Titer-Glo). The format is cell-based. To be noted: 72 hours, CTG; read-out: inhibitory activity IC50 Ba/F3-TPM3-NTRK1-WT. Summed up: (§2)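 Ba/F3 cells were exposed for 72 hours to serially DMSO-diluted compound at a top final concentration of 10 μM. Viability was read by Cell Titer-Glo luminescence after the plate equilibrated 30 min at room temperature and was then shaken 1 hour in the dark at room temperature.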

A further data set deals with TRKA^WT kinase (Homo sapiens (Human), UniProt P04629). The experiment in a line: Inhibitory activity against TRKA WT kinase (Caliper mobility shift). Type of data set: biochemical. As to conditions: in vitro kinase assay. The gist of the method: as §1
The test system of data set [2] is Ba/F3-TPM3-NTRK1-G667C cells. The experiment in a line: Growth inhibition of Ba/F3-TPM3-NTRK1-G667C cells (Cell Titer-Glo). Type of data set: cell-based. As to conditions: for IC50: 72 hours, CTG, read-out: inhibitory activity IC50 Ba/F3-TPM3-NTRK1-G667C. The gist of the method: as §2
The conditions of data set [3]: ether bond, 13-membered ring, SOCl2, K2CO3, DCM/DMF, 90.0 °C, 2 steps.
Data set [4] has as its system Ba/F3-TPM3-NTRK1-G595R cells. Briefly: Growth inhibition of Ba/F3-TPM3-NTRK1-G595R cells (Cell Titer-Glo). As to conditions: 72 hours, CTG; read-out: inhibitory activity IC50 Ba/F3-TPM3-NTRK1-G595R. The format is cell-based. Summed up:
as §2

Chain of TRKA^F589L kinase (P04629 33-796 F589L): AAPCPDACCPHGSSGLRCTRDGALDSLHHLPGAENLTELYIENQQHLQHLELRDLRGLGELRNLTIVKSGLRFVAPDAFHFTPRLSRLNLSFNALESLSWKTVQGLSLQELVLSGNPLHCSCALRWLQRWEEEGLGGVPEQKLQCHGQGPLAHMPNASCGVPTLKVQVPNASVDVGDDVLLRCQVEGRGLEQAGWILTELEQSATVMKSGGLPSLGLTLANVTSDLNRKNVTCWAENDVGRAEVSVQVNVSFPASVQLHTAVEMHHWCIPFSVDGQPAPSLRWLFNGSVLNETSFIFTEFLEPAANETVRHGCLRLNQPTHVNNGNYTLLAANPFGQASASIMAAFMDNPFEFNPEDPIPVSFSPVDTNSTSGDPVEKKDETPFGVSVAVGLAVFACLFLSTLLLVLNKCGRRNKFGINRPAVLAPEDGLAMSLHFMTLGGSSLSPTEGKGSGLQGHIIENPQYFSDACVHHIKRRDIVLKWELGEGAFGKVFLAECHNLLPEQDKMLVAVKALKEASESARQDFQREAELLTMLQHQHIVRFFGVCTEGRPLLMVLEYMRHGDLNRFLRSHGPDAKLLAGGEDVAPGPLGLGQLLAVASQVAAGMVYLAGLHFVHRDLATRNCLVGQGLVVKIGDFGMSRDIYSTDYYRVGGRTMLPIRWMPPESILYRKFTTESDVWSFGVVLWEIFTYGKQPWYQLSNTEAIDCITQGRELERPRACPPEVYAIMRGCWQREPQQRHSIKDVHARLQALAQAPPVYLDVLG
Chain of TRKA^WT kinase (P04629 33-796): as the sequence (P04629 33-796 F589L) above, with L557F counted along it

For `CC1Nc2ccc3ncc(n3n2)-c2cncc(c2)COc2ccc(F)cc21` (stereo not shown) [Example I-7, (E)-5^4-fluoro-6-methyl-4-oxa-7-aza-1(3,6)-imidazo[1,2-b]pyridazine-2(3,5)-pyridina-5(1,2)-benzenacycloheptaphane], the IC50 was less than 5 nM at TRKA^F589L kinase; 2.8 nM in data set [1]; less than 3 nM at TRKA^WT kinase; 220 nM in data set [2]; 198 nM in data set [4]. The ring closure, isolated yield in data set [3] (from CC(Nc1ccc2ncc(-c3cncc(CO)c3)n2n1)c1cc(F)ccc1O, 15.7 mM, 2.0 h) worked out at 22.6%.
Take `Fc1ccc2c(c1)CNc1ccc3ncc(n3n1)-c1cc(ccn1)CO2` [Example I-5, (E)-5^4-fluoro-4-oxa-7-aza-1(3,6)-imidazo[1,2-b]pyridazina-2(2,4)-pyridina-5(1,2)-benzenacycloheptaphane]: the IC50 at TRKA^F589L kinase is less than 5 nM; in data set [1], 7.94 nM; on TRKA^WT kinase, 1.36 nM; in data set [2], 94 nM; in data set [4] it was 91.5 nM. In data set [3] (from OCc1ccnc(-c2cnc3ccc(NCc4cc(F)ccc4O)nn23)c1, 20.3 mM, 2.0 h), this molecule gave a ring closure, isolated yield of 11.6%.
Consider `CC1Nc2ccc3ncc(n3n2)-c2cc(ccn2)COc2c(F)cc(F)cc21` (stereo not shown) [Example I-2, (E)-5^4,5^6-difluoro-6-methyl-4-oxa-7-aza-1(3,6)-imidazo[1,2-b]pyridazine-2(2,4)-pyridina-5(1,2)-benzenacycloheptaphane], for which the IC50 at TRKA^F589L kinase was found to be 6.2 nM; in data set [1], 24.8 nM; at TRKA^WT kinase it was 2.59 nM; in data set [2] it was 32.5 nM; in data set [4] it was 245 nM. In addition, the “inhibitory ability compared with TPX-0005” value in data set [2] (comparison in words) was “stronger than that of compound TPX-0005”. The molecule further registered a ring closure, isolated yield in data set [3] (from CC(Nc1ccc2ncc(-c3cc(CO)ccn3)n2n1)c1cc(F)cc(F)c1O, 15.2 mM, 1.5 h) of 11.2%.
Turning to `CC1Nc2ccc3ncc(n3n2)-c2cc(ccn2)COc2ccc(F)cc21` (stereo not shown) [Example I-1, (E)-5^4-fluoro-6-methyl-4-oxa-7-aza-1(3,6)-imidazo[1,2-b]pyridazina-2(2,4)-pyridina-5(1,2)-benzenacycloheptaphane], the IC50 at TRKA^F589L kinase came out at 5.4 nM; in data set [1], 3.66 nM; at TRKA^WT kinase, 2.57 nM; in data set [2], 91.2 nM; in data set [4] it was 72.2 nM. The ring closure, isolated yield in data set [3] (from CC(Nc1ccc2ncc(-c3cc(CO)ccn3)n2n1)c1cc(F)ccc1O, 15.2 mM, 2.0 h) turned out to be 11.3%.
`CC1Nc2ccc3ncc(n3n2)-c2cc(ccn2)COc2ccccc21` (stereo not shown) [Example I-3, (E)-6-methyl-4-oxa-7-aza-1(3,6)-imidazo[1,2-b]pyridazine-2(2,4)-pyridine-5(1,2)-benzenacycloheptaphane]: the IC50 was found to be 7.1 nM on TRKA^F589L kinase; 17 nM in data set [1]; 5.9 nM on TRKA^WT kinase; 526 nM in data set [2]; 527 nM in data set [4]. The molecule also yielded a ring closure, isolated yield in data set [3] (from CC(Nc1ccc2ncc(-c3cc(CO)ccn3)n2n1)c1ccccc1O, 11.0 mM, 2.0 h) of 39.2%.
